From US20120003177A1 (priority 2008, published 2012)
Entries after “also recorded” stand apart in the source; their conditions may differ. Read-outs that look alike come from different tables or passages of the source.

Assays:
[1] = test system: SKOV-3 human ovarian cancer cell line; experiment: MTT cytotoxicity of polycurcumins to SKOV-3 cells (72 h treatment); conditions: for IC50: Homo sapiens
Experimental: The human ovarian carcinoma SKOV-3 cell line was purchased from American type culture collection (ATCC). Cells were cultured in RPMI 1640 medium supplemented with 10% fetal bovine serum (HyClone, Logan, Utah) and grown at 37° C. in a humidified atmosphere of 5% CO2 (v/v) in air. All of the experiments involving cells were performed on cells in the exponential growth phase.
The cytotoxicity of polycurcumins was determined using the standard 3-(4,5-dimethylthiazolyl-2)-2,5-diphenyltetrazolium bromide (MTT) cell proliferation kit (ATCC, Manassas, Va.) according to manufacturer's protocol. In brief, SKOV-3 cells were seeded onto 96-well plates with a density of 15,000 cells per well and incubated at 37° C. in a humidified atmosphere of 95% air and 5% CO2 for 16 h. The medium in each well was replaced with 200 μL of culture medium containing the treatments and cultured for 72 h. The medium in each well was then replaced with fresh media and the cells were incubated for another 24 h. The incubation medium was then replaced with 100 μL of fresh medium and 10 μL of MIT reagent. After 6 h, 100 μL of detergent reagent was added to each well and incubated for 18 h at room temperature in the dark until all the crystals dissolved. The absorbance intensity at 570 nm was recorded on a Bio-Rad (model 550) microplate reader. Cell viability is defined as the percent live cells compared with untreated controls.
For each polycurcumin tested, the commoners such as 3,3′-dithiodipropionic acid, pyromellitic dianhydride, tri(ethylene glycol) divinyl ether and PEG, were used as controls.

[2] = cited from earlier work
[3] = test system: DU145 prostate carcinoma, A549 lung carcinoma, and HT29 colon carcinoma; conditions: read-out: IC50 (50% inhibitory concentration); variety of cancer cell lines; cited from earlier work
[4] = PBS at pH 7.2; cited from earlier work

Compound: O=C(O)CCSSCCC(=O)O [3,3′-dithiodipropionic acid]
- cytotoxicity of comonomer controls against SKOV-3 cells [1]: no significant cytotoxicity

Compound: COc1cc(C=CC(=O)CC(=O)C=Cc2ccc(O)c(OC)c2)ccc1O [Curcumin, 1,7-bis-(4-hydroxy-3-methoxyphenyl)-hepta-1,6-diene-3,5-dione]
- IC50 ([1]; SK-OV-3, read-out: IC50, curcumin equivalent dose): 21 µM
- IC50 ([1]; SK-OV-3, read-out: IC50-C (IC50 in terms of curcumin-equivalent dose)): 7.8 µg/mL
- solubility of free curcumin in water, in words [2]: almost insoluble in water; also recorded: practically insoluble in water
- IC50 [3]: 10 to 75 µM
- half life (t1/2) [4]: less than 10 min

Compound: O=c1oc(=O)c2cc3c(=O)oc(=O)c3cc12 [pyromellitic dianhydride]
- cytotoxicity of comonomer controls against SKOV-3 cells [1]: no significant cytotoxicity

Compound: C=COCCOCCOCCOC=C [tri(ethylene glycol) divinyl ether]
- cytotoxicity of comonomer controls against SKOV-3 cells ([1]; SKOV-3, MTT, comonomers as controls): no significant cytotoxicity

Compound: polyethylene glycol [PEG]
- cytotoxicity of comonomer controls against SKOV-3 cells [1]: no significant cytotoxicity
